The source made the active and inactive calls. The rule behind the calls is not given here.
Key:
Format in all cases: functional
[1] = test system: AGS; assay: Anticancer activity against TRAIL-resistant human AGS cells assessed as cell viability at 150 uM after 24 hrs by fluorometric microculture cytotoxicity assay in presence of 100 ng/ml TRAIL
[2] = test system: AGS; assay: Anticancer activity against TRAIL-resistant human AGS cells assessed as cell viability at 75 uM after 24 hrs by fluorometric microculture cytotoxicity assay in presence of 100 ng/ml TRAIL
[3] = test system: AGS; assay: Anticancer activity against TRAIL-resistant human AGS cells assessed as cell viability at 37.5 uM after 24 hrs by fluorometric microculture cytotoxicity assay in presence of 100 ng/ml TRAIL
[4] = test system: AGS; assay: Anticancer activity against TRAIL-resistant human AGS cells assessed as cell viability at 17.5 uM after 24 hrs by fluorometric microculture cytotoxicity assay in presence of 100 ng/ml TRAIL

## CC(=O)N[C@@H](Cc1ccc(O)c(CC=C(C)C)c1)C(=O)O
[1]
  Activity: 67%
[2]
  Activity: 77%

## CC(C)=CCc1cc(C[C@H](N)C(=O)O)ccc1O
[1]
  Activity: inactive
[2]
  Activity: inactive

## CO[C@@H]1[C@@H](OC(N)=O)[C@@H](O)[C@H](Oc2ccc3c(O)c(NC(=O)c4ccc(O)c(CC=C(C)C)c4)c(=O)oc3c2C)OC1(C)C [NOVOBIOCIN]
[2]
  Activity: 63%
[3]
  Activity: 72%

## O=c1cc(-c2ccc(O)c(O)c2)oc2cc(O)cc(O)c12 [LUTEOLIN]
[4]
  Activity: 70%

Source: ChEMBL document CHEMBL1154142, “Tyrosine derivatives isolated from Streptomyces sp. IFM 10937 in a screening program for TRAIL-resistance-overcoming activity” (2008)
